Laboratory results published in patent US7744920B2, “Use of liposomal glucocorticoids for treating inflammatory states” (Hadasit Medical Research Services & Development Limited, priority 2004, dated 2010).
Where “and” joins values, the source holds several entries; their conditions need not be identical. Equal values may be shown once.

Key:
[1] = Stability of liposomal formulation upon storage at 4° C. (gel exclusion chromatography); assay type: physicochemical; settings: encapsulated in liposome, storage at 4° C. for 14 months
Protocol: The level of MPS released from SSL-MPS was determined by first separating the liposomes from free MPS using gel exclusion chromatography on Sepharose cross-linked CL-4B column using. Liposomes were eluted at the void volume and the free MPS at the later eluted fractions (FIG. 3A-3B). Stability upon storage at 4° C. and kinetic of release at 37° C. in 80% plasma was determined by gel exclusion chromatography described above. Then the different column fractions were analyzed as described above, for MPS, phospholipids and Ca in the void volume fraction.

[2] = State of aggregation (turbidity) of MPS as function of pH; assay type: physicochemical
Protocol: Aggregation of MPS was determined from the change in turbidity measured as intensity of light scattered at 90° to excitation beam using a spectrofluormeter under conditions that MPS lack absorbance (excitation and emission at the same wavelength Ex=600 nm Em=600 nm). There is a large increase in the light scattered by MPS solution/dispersion due to formation of aggregates.
The intensity of scattered light (at 90° to the excitation), also defined as turbidity is proportional to concentration and to the size of the aggregates. [Zuidam, N. J. and Barenholz, Y., Biochim. Biophys. Acta 1368:115-128 (1998)]. The state of aggregation of MPS was tested in the following manner: To quartz cuvette MPS (2 ml) at concentration of ˜6.5mg/ml MPS was added. The solution was tittered with HCl (1.756 M) and light scattering using excitation and emission at (both at 600 nm with attenuation of 1%) and pH of the solution was monitored.

[3] = Precipitation of MPS in calcium acetate solution; assay type: physicochemical; settings: 600 mOsm Ca-acetate, 63° C, 5 mg/ml, 40 minutes
Protocol: To 600 mOsm Ca-acetate solution at 63° C and at different pH points MPS was added at final concentration of 5 mg/ml, then mixed solution was incubated for 40 minutes after which the solution was centrifuged and the supernatant was analyzed using […].

[4] = Protocol: Surface tension was measured using μtrouge S (Kibron Inc., Helsinki Finland). A solution containing GC derivative (300 μL) was placed in the well after calibration and zeroing of the sensor using pure water and air. The measurement was performed at 26° C.
Adjuvant Arthritis (AA) [5] = test: Effect of SSL-MPS on AA at peak of disease; assay type: in vivo, Lewis rats; settings: for AA score after the second injection at day 23: SSL-MPS and free-MPS 10 mg/kg BW on days 19, 23, Remicade 5 mg/kg on day 19; for clinical score immediately after the first injection: day 19, SSL-MPS and free-MPS 10 mg/kg BW, Remicade 5 mg/kg
Adjuvant Arthritis (AA) [6] = test: Treatment of Adjuvant Arthritis (AA), injections from day 10 after induction; assay type: in vivo, Lewis rats; settings: 2 i.v. injections on days 10 and 14, 5 then 10 mg/kg BW (FIG. 7A)
[7] = Loading efficiency of MPS into liposomes; assay type: physicochemical; settings: HSPC:Chol:2000PEG-DSPE liposomes
Protocol: A stock solution of methylprednisolone hemisuccinate sodium salt (MPS, the GC derivative) was dissolved in 5% dextrose (pH 7.2) to a concentration of ˜9 mg/ml and added to the preformed SSL dispersion after the calcium acetate gradient was established. MPS concentration was ˜9 mg/ml and phospholipid ˜32 mM phosphate.
Loading was achieved by incubation of the components above for the desired time at 62° C. (above matrix lipid Tm). Liposomes were then cooled to 4° C. and dialyzed against 5% dextrose at 4° C. to remove acetate released during loading and to remove unloaded drug or alternatively unloaded drug was removed by the ion exchanger Dowex 1×400 mesh (Cl^− form).
Loading efficiency is the ratio between MPS/phospholipid concentrations after and before loading. The quantification of MPS was done in an HPLC apparatus as described by Anderson, and Taphouse 1981 [Anderson B. D. and Taphouse. V. J Pharm Sci, 70:181-6 (1981)], quantification of phospholipid was done by modified Bartlet procedure [Shmeeda, H., et al. In: Methods in Enzymology “Liposomes”, (Düzgünes, N., ed.), 367:272-292 (2003)].

[8] = Partition coefficient (logD) by shake flask; assay type: physicochemical; settings: FIG. 1B
Protocol: Partition coefficient (logD) of some GC derivatives (which are amphipathic weak acids) was determined by the ‘shake flask’ as described [Samuni, A. M. and Barenholz, Y., Free Radicals Biol. Med. 22:1165-1174 (1997)].

[9] = liposomal formulation, after 24 hours, ex vivo; cited from earlier work
[10] = cited from earlier work

C[C@H]1C[C@@H]2[C@H]([C@@H](O)C[C@@]3(C)[C@H]2CC[C@]3(O)C(=O)COC(=O)CCC(=O)O)[C@@]2(C)C=CC(=O)C=C12 [Methylprednisolone hemisuccinate]
reduction in the GC derivative from initial concentration [1]: less than 20%

C[C@H]1C[C@@H]2[C@H]([C@@H](O)C[C@@]3(C)[C@H]2CC[C@]3(O)C(=O)COC(=O)CCC(=O)[O-])[C@@]2(C)C=CC(=O)C=C12.[Na+] [MPS, methylprednisolone sodium hemisuccinate]
state of aggregation (turbidity) ([2]; acidic pH): aggregates
state of aggregation (turbidity) ([2]; pH 7.2): non-aggregated water soluble
% MPS precipitated ([3]; pH 4.5): 97% and 96.6%
% MPS precipitated ([3]; pH 6.2): 42.8%
% MPS precipitated ([3]; pH 6.8): 44.1%
CAC (critical association/aggregation concentration) ([4]; 26° C.): ~5 mM
surface activity ([4]; concentrations 0.785-30 mM): surface active at all concentrations used
AA score after the second injection at day 23 (Adjuvant Arthritis (AA) [5]): minimal decline
clinical score immediately after the first injection (Adjuvant Arthritis (AA) [5]): very slow decline
effect on AA (Adjuvant Arthritis (AA) [6]): neither the free MPS nor the empty liposome had any effect on AA
% Encapsulation ([7]; batch 04 May 2005, after dialysis): 93.2%
% Encapsulation ([7]; batch 06 Apr. 2005, after dialysis): 96.6%
% Encapsulation ([7]; batch 18 Jul. 2004, after dialysis): 99.1%
partition coefficient at different pH points [8]: amphipathic substance

triamcinolone acetonide phosphate
acidic corticosteroid retained by the liposome [9]: more than 75%
pKa [10]: below 2

REMICADE: positive control, Remicade 5 mg/kg (on day 19)
AA score after the second injection at day 23 (Adjuvant Arthritis (AA) [5]): minimal decline
clinical score immediately after the first injection (Adjuvant Arthritis (AA) [5]): very slow decline
